The source of these data is patent US10041922B2, “Biochemistry based ocular toxicity assay” (priority 2015, dated 2018).

The test system of data set [1] is water-soluble protein/glycoprotein test matrix. The experiment in a line: Water soluble assay (Alpha): optical response (OD400) of the macromolecule active agent, irritation score. The following applies: TP/FN/TN based on comparison with the in vivo test results.
Experimental: (§1) The macromolecule based test matrix behaves as an active agent in the assay and is capable of undergoing a measurable change when exposed to an ocular irritant. The measurable change may be a change in appearance, which can be measured by spectrophotometry. One or more standards of known toxicity are added to at least a second aliquot of the water-soluble matrix to form control solutions, to generate a calibration curve. The measurable change induced by the test substance can be compared to the measurable change induced by the standards to make an ocular toxicity prediction. For instance, test substances that induce an equal or greater reaction than a known irritant may be classified as ocular irritants. In some embodiments, the pH of the control solution may be adjusted to match the pH of the test solution, thereby controlling for pH effects and increasing accuracy. In some embodiments, a test substance which is at least partially water insoluble is added to an aliquot of a reagent comprised of one or more hydrophobic organic polymers capable of undergoing a measurable change in response to water insoluble ocular irritants. The measurable change may be a change in appearance, which can be measured by spectrophotometry. One or more standards of known toxicity are added to at least a second aliquot of the reagent to generate a calibration curve. The measurable change induced by the test substance can be compared to the measurable change induced by the standards to make an ocular toxicity prediction in the manner described above. Water-soluble and water-insoluble assays can be performed in parallel, or multiplexed, to rapidly and efficiently predict the ocular toxicity of a wide range of compounds.
(§2) In some embodiments related to the water-soluble sub-assay, the test matrix is a water-soluble active agent comprising one or more macromolecules in aqueous solution. […] In some embodiments, the water-soluble active agent comprises at least one of isoleucine, glutamine, leucine, lysine, tyrosine, valine, proline, methione, fumerase, serine, urocanate, triacyl glycerol, globulin, gammaglobulin, mucopolysaccharide, albumin, carbohydrates, lipids, saponins, conalbumin, ovalbumin, ovomucoid, mucin, egg white fractions, plant extract, cell extract, milk fractions, red blood cell extract, muscle extract, gelatin fractions, heme, aspartate, lignocerate, stearate, linolenate, benzoate, carnitine, palmate, coenzyme A, and urea. The molecules and macromolecules can be derived as crude cell or tissue extracts, or obtained individually or in part and reconstituted.
(§3) A third pretest is performed to measure the buffering power of the unknown test substance. […] Next, 125 μL or mg of test substance is added to the test tube. The pH of the mixture is recorded. The final pH is compared to the starting pH and the absolute value of the change in pH is applied as an exponent to base 10 to generate a buffering score. These pretest results are used to select specific procedures to further analyze the test substance. Compounds with a buffering score between 5 and 2 are within the MA α domain. Compounds outside of the MA α domain with buffering scores less than 100 are within the HMA α domain. Substances with a buffering score of at least 100 are within the H-test domain.
(§4) The MA α procedure is used to test unknowns that have a small buffering capacity. The MA α procedure predicts a substance's capacity for indirect denaturation of molecules across a membrane via osmotic effects, such as osmotic effects across the corneal epithelium and stroma which can damage the cornea. The MA α assay further analyzes Potential to damage tissue via excessive oxidation and reactivity, which can occur at the epithelium, stroma, conjunctiva and iris.
Data set [2] is described as follows: Water insoluble assay (Delta): optical response (OD700) of the hydrophobic polymer Δ reagent, irritation score. The following applies: TP/FN/TN based on comparison with the in vivo test results.
Experimental: Triplicate Δ Test and Δ Control cells are labeled as follows: Test Cell 40 μL; Control Cell 40 μL; Test Cell Standard A; Test Cell Standard B. The cells are placed in a rack. 40 μL aliquots of test sample are added to the three Δ positive cells. 40 μL of Standard A+ and 40 μL of Standard B+ are added to the respective triplicate cells. 40 μL of test substance is aliquoted to the True Negative cell. All test and standard cells (A+, B+, and control cells) are filled with 2 mL of Δ reagent. […] 2 mL of Δ reagent is added to a naïve Δ test cell to blank a spectrophotometer. The OD700 value is measured for all test and standard cells. Where the substance is colored or opaque, 2 mL of Δ reagent are added to a naïve control Δ cell, and the OD700 value is measured for all control cells.
Test Cell values are recorded. Control cell values are recorded. Where samples are colored or opaque Net OD700 values are obtained by subtracting the average of the control cell OD700 value from the average of the test cell OD700 value. The average of positive controls A+ and B+ are calculated.
For each unknown, an irritancy classification is ascertained by using the closest positive cell value. The highest measured value is used. The standard with the closest OD value is identified as the Closest Standard Value. The Measured Value is divided by the mean of the three Closest Standard Values. A multiplier is applied to the quotient corresponding to the designation of the Closest Standard Value. If the Closest Standard Value is A+, the multiplier is 8. […] The resulting value is the irritation score for the sample. The highest score is used to predict the irritancy of the sample.
For another data set, the system named is eye. The note with it: cited from earlier work.
The test system of data set [3] is water-soluble protein/glycoprotein test matrix.
Experimental: as §1, §2, §3, §4
The mark [4] stands for this setting: category of irritant from published in vivo irritancy tests (GHS).

SMILES strings stand for the structures. Read-outs that look alike come from different tables or passages of the source.

For the compound `CCCCC(CC)COC(=O)c1ccc(N(C)C)cc1` (stereo not shown) [2-Ethylhexyl 4-(dimethylamino)benzoate], the “Water soluble assay (Alpha), parenthetical call versus in vivo” value in data set [1] is on record as “(TN)”. Besides, the “water insoluble assay (Delta), parenthetical call versus in vivo” value in data set [2] is given as “(TN)”. Further, in the data set with eye (setting [4]), the in vivo result is “Not Classified”.
`ClCCCCBr` [1-Bromo-4-chlorobutane]: the “Water soluble assay (Alpha), parenthetical call versus in vivo” value in data set [1] was “(TN)”. The “water insoluble assay (Delta), parenthetical call versus in vivo” value in data set [2] is listed as “TN)”. Besides, in the data set on eye (setting [4]), the in vivo result is recorded as “Not Classified”.
As for `CC(C)(C)CC(C)(C)c1ccc(O)cc1` [4-(1,1,3,3-Tetramethylbutyl)phenol], the “Water soluble assay (Alpha), parenthetical call versus in vivo” value in data set [1] is listed as “(TP)”. Besides, in data set [2], the “water insoluble assay (Delta), parenthetical call versus in vivo” value is recorded as “(FN)”.
For `OCc1ccccc1` [Benzyl Alcohol], the “Water soluble assay (Alpha), parenthetical call versus in vivo” value in data set [1] was “(TP)”. For the same compound, in data set [2], the “water insoluble assay (Delta), parenthetical call versus in vivo” value is “(TP)”.
Regarding `CCCCCCCCCCCC` [Dodecane], the “Water soluble assay (Alpha), parenthetical call versus in vivo” value in data set [1] is “(TN)”. Moreover, the “water insoluble assay (Delta), parenthetical call versus in vivo” value in data set [2] is reported as “(TN)”. Also, in the data set on eye (setting [4]), the in vivo result is recorded as “Not Classified”.
In the case of `CC(C)O` [2-Propanol], the “Water soluble assay (Alpha), parenthetical call versus in vivo” value in data set [1] was “(TP)”. Besides, the “water insoluble assay (Delta), parenthetical call versus in vivo” value in data set [2] was “(FN)”. Further, the in vivo result in the data set on eye (setting [4]) was “Category 2A”.
Regarding `CCOC(=O)C(C)(C)O` [Ethyl a-hydroxyisobutyrate], in data set [3], the “Water soluble assay (Alpha)” value was >60 and the “Water soluble assay (Alpha), parenthetical call versus in vivo” value is “(TP)”. Besides, the in vivo entry with eye (rabbit, in vivo) is on record as “Category 1”.
As for `C=CC(=O)OCCO` [Hydroxyethyl acrylate], in data set [1], the “Water soluble assay (Alpha), parenthetical call versus in vivo” value is reported as “(TP)”.
`O=C=Nc1ccc(Cl)c(Cl)c1` [3,4-Dichlorophenyl isocyanate]: the “Water soluble assay (Alpha), parenthetical call versus in vivo” value in data set [1] is on record as “(TP)”. Further, the “water insoluble assay (Delta), parenthetical call versus in vivo” value in data set [2] was “(FN)”.
Regarding `c1ccncc1` [Pyridine], the in vivo result in the data set on eye (rabbit, in vivo) is on record as “Category 1”.
`CCOC(=O)C(C)C(C)=O` (stereo not shown) [Ethyl 2-methyl]: in data set [3], the “Water soluble assay (Alpha)” value is listed as 10.9 and the “Water soluble assay (Alpha), parenthetical call versus in vivo” value was “(FN)”. Besides, in the data set with eye (rabbit, in vivo), the in vivo result is listed as “Category 2B”.
Regarding `O=C(Cl)C(Cl)(Cl)Cl` [Trichloroacetyl chloride], the “Water soluble assay (Alpha), parenthetical call versus in vivo” value in data set [1] is listed as “(TP)”. The “water insoluble assay (Delta), parenthetical call versus in vivo” value in data set [2] is listed as “(TP)”.
With `CCC(C)(C)C(=O)O` [2,2-Dimethyl Butanoic Acid], the “Water soluble assay (Alpha), parenthetical call versus in vivo” value in data set [1] is on record as “(TP)”. The “water insoluble assay (Delta), parenthetical call versus in vivo” value in data set [2] was “(FN)”.
The matching figures for `CN(C)CCCCCCN(C)C` [tetramethyl-1,6 hexanediame]: “(TP)” and “(TP)”.
As for `CCCCCCO` [1-Hexanol], the “Water soluble assay (Alpha), parenthetical call versus in vivo” value in data set [1] is “(TP)”. For the same compound, the “water insoluble assay (Delta), parenthetical call versus in vivo” value in data set [2] is “(FN)”. Further, in the data set with eye (setting [4]), the in vivo result was “Category 2A”.
For the compound `BrCCCCCCBr` [1,6-Dibromohexane], in data set [1], the “Water soluble assay (Alpha), parenthetical call versus in vivo” value is listed as “(TN)”. In addition, the “water insoluble assay (Delta), parenthetical call versus in vivo” value in data set [2] is recorded as “(TN)”. For the same compound, in the data set on eye (setting [4]), the in vivo result is recorded as “Not Classified”.
Take `CCN(CC)CCO` [Diethylethanolamine]: in data set [3], the “Water soluble assay (Alpha)” value worked out at 53.54 and the “Water soluble assay (Alpha), parenthetical call versus in vivo” value is reported as “(TP)”. The in vivo result in the data set on eye (rabbit, in vivo) is recorded as “Category 1”.
Take `CCCCCCCCN` [n-Octylamine]: the “Water soluble assay (Alpha), parenthetical call versus in vivo” value in data set [1] is “(TP)”. Moreover, the “water insoluble assay (Delta), parenthetical call versus in vivo” value in data set [2] is “(TP)”.
With `CO[Si](CCCNCCC[Si](OC)(OC)OC)(OC)OC` [Organofunctional Silane], in data set [3], the “Water soluble assay (Alpha)” value is 25.53 and the “Water soluble assay (Alpha), parenthetical call versus in vivo” value is “(TP)”. Besides, the in vivo entry in the data set on eye (rabbit, in vivo) is “Category 1”.
On to `NCCO` [Ethanolamine], for which the “Water soluble assay (Alpha), parenthetical call versus in vivo” value in data set [1] is “(TP)”. For the same compound, in data set [2], the “water insoluble assay (Delta), parenthetical call versus in vivo” value was “(FN)”. Besides, the in vivo entry in the data set on eye (setting [4]) is given as “Category 2B”.
